Read-outs that look alike come from different tables or passages of the source.
Tests used:
[1] = system: ABCA1 gene expression; assay: Human whole blood assay (hWBA), ABCA1 mRNA induction; format: cell-based; settings: for Emax: read-out: hWBA hABCA1 L30 Max P (%)
Experimental: Human whole blood was collected in EDTA containing tubes and 0.5 mL aliquots were immediately mixed in a 96 well block with the appropriate serial dilution of test compound, in 0.5% DMSO. Compounds were incubated with blood at 37° C. with constant rocking for 4 hours. After incubation, cells were lysed in ABI Nucleic Acid Purification Lysis Solution (Applied Biosystems catalog #4305895) and frozen at −80° C. Following cell lysis, total RNA was purified using an ABI 6100 RNA prep station according to the protocol provided by the manufacturer. cDNAs were synthesized, and mRNAs were quantitated using SYBR-Green Quantitative PCR (Q-PCR) on an ABI Prism 7900HT Sequence Detection System and reagents from Quanta Bioscience Inc (Quanta Bioscience catalog #95047 and 95055).
The quantity of each mRNA was determined by the ΔΔCT method (Michael W. Pfaffl. A new mathematical model for relative quantification in real-time RT-PCR. Nucleic Acids Research, 2001, Vol. 29, No. 9 e45) and normalized to the quantity of two control mRNAs, i.e. ribosomal protein L-30 (L-30) and beta-2-microglobulin (B2M). The induction of ABCA1 and ABCG1 by test compound was graphed as a percent of the reference compound, 2-(4-(5-(5-cyano-1-(2,4-difluorobenzyl)-6-oxo-4-(trifluoromethyl)-1,6-dihydropyridin-2-yl)thiophen-2-yl)-3-methylphenyl)acetic acid, and potency (EC50) and activity (% MAX) were calculated by fitting a sigmoidal response curve as a function of log transformed compound concentration using XLFit software according to the equation y=A+((B−A)/(1+((C/x)^D))).

[2] = High throughput metabolic stability in human microsomes; format: in vitro ADME; settings: parent compound remaining at 10 minutes, human liver microsomes
Experimental: The metabolic stability assay evaluates CYP-mediated metabolic stability in vitro using Human liver microsomes after a ten-minute incubation.
Test compound is received as a 3.5 mM stock solution in 100 percent DMSO. Compound is diluted to create a 50 μM acetonitrile (ACN) solution containing 1.4% DMSO, which is then used as a 100× stock for incubation with human liver microsomes. Each compound is tested in duplicate. Compound, NADPH and liver microsome solutions are combined for incubation in three steps: • 1) 152 μl of liver microsome suspension, protein concentration of 1.1 mg/ml in 100 mM NaPi, pH 7.4, 5 mM MgCl2 buffer, is pre-warmed at 37° C. • 2) 1.7 μl of 50 μM compound (98.6% ACN, 1.4% DMSO) is added to the same tube and pre-incubated at 37° C. for 5 minutes. • 3) The reaction is initiated by the addition of 17 μl of pre-warmed 10 mM NADPH solution in 100 mM NaPi, pH 7.4.
Reaction components are mixed well, and 75 μl are immediately transferred into 150 μl quench/stop solution (zero-time point, T0). Reactions are incubated at 37° C. for 10 minutes and then an additional 75 μl aliquot is transferred into 150 μl quench solution. Acetonitrile containing 100 μM DMN (a UV standard for injection quality control), is used as the quench solution to terminate metabolic reactions.
Quenched mixtures are centrifuged at 1500 rpm (˜500× g) in an Allegra X-12 centrifuge, SX4750 rotor (Beckman Coulter Inc., Fullerton, Calif.) for fifteen minutes to pellet denatured microsomes. A volume of 90 μl of supernatant extract, containing the mixture of parent compound and its metabolites, is then transferred to a separate 96-well plate for UV-LC/MS-MS analysis to determine the per cent of parent compound that is remaining in the mixture.
The mass spectrometric conditions obtained from automated infusion are used to analyze incubation samples from the Metabolic Stability assay. The injection volume is 5 μl and the flow rate is 0.8 ml/min. The gradient used is show in the table below. All samples are injected with the gradient using mobile phase A and B first. If necessary (for instance, for chromatographic reasons), samples are re-injected with the same gradient, but using mobile phase C and D. All LC-MS/MS analysis parameters are captured electronically in the raw data files.
Peak integration is performed with the Xcalibur™ software. The percent remaining calculation is performed by comparing the LC-MS/MS peak areas from the T10minute samples to those from the T0minute samples for each compound.

[3] = Homo sapiens, 4 h, percent of reference pan agonist (maximal activity defined as 100%)
[4] = human whole blood, 4 hours, ABCA1 mRNA normalized to L30, read-out: hWBA hABCA1 L30 EC50

Human Microsome % Remaining [2] | Structure (SMILES) | Emax [1, 3] | EC50 [1, 4] | EC50 ([1]; Homo sapiens, 4 h, read-out: hWBA hABCA1 L30 EC50 (nM)) | Emax ([1]; Homo sapiens, 4 h)
>80% | CC(C)(O)c1cn(-c2ccc(-c3cc(F)c(CO)c(S(C)(=O)=O)c3)cc2F)c(C(C)(C)c2c(Cl)cccc2Cl)n1 [Example 9, 2-(2-(2-(2,6-dichlorophenyl)propan-2-yl)-1-(3,3′-difluoro-4′-(hydroxymethyl)-5′-(methylsulfonyl)biphenyl-4-yl)-1H-imidazol-4-yl)propan-2-ol] | 28% | < 100 nM |  | 
>80% | CC(C)(O)c1cn(-c2ccc(-c3cc(F)c(CO)c(S(C)(=O)=O)c3)cc2F)c(Cc2ccc(Cl)cc2Cl)n1 [Example 11, 2-(2-(2,4-dichlorobenzyl)-1-(3,3′-difluoro-4′-(hydroxymethyl)-5′-(methylsulfonyl)biphenyl-4-yl)-1H-imidazol-4-yl)propan-2-ol] | 16% | < 100 nM |  | 
>80% | CC(C)(O)c1cn(-c2ccc(-c3cc(F)c(CO)c(S(C)(=O)=O)c3)cc2F)c(Cc2ccccc2C(F)(F)F)n1 [Example 12, 2-(1-(3,3′-difluoro-4′-(hydroxymethyl)-5′-(methylsulfonyl)biphenyl-4-yl)-2-(2-(trifluoromethyl)benzyl)-1H-imidazol-4-yl)propan-2-ol] | 32% | < 100 nM |  | 
>80% | CC(C)(O)c1cn(-c2ccc(-c3cc(F)c(CO)c(S(C)(=O)=O)c3)cc2Cl)c(Cc2ccc(F)cc2Cl)n1 [Example 13, 2-(1-(3-chloro-3′-fluoro-4′-(hydroxymethyl)-5′-(methylsulfonyl)biphenyl-4-yl)-2-(2-chloro-4-fluorobenzyl)-1H-imidazol-4-yl)propan-2-ol] | 50% | < 100 nM |  | 
>80% | CC(C)(O)c1cn(-c2ccc(-c3cc(F)c(CO)c(S(C)(=O)=O)c3)cc2F)c(Cc2ccc(F)cc2Cl)n1 [Example 14, 2-(2-(2-chloro-4-fluorobenzyl)-1-(3,3′-difluoro-4′-(hydroxymethyl)-5′-(methylsulfonyl)biphenyl-4-yl)-1H-imidazol-4-yl)propan-2-ol] | 24% | < 100 nM |  | 
>80% | CC(C)(O)c1cn(-c2ccc(-c3cc(F)c(CO)c(S(C)(=O)=O)c3)cc2)c(Cc2ccc(Cl)cc2Cl)n1 [Example 15, 2-(2-(2,4-dichlorobenzyl)-1-(3′-fluoro-4′-(hydroxymethyl)-5′-(methylsulfonyl)biphenyl-4-yl)-1H-imidazol-4-yl)propan-2-ol] | 47% | < 100 nM |  | 
>80% | CC(C)(O)c1cn(-c2ccc(-c3cc(F)c(CO)c(S(C)(=O)=O)c3)cc2F)c(Cc2ccccc2F)n1 [Example 16, 2-(1-(3,3′-difluoro-4′-(hydroxymethyl)-5′-(methylsulfonyl)biphenyl-4-yl)-2-(2-fluorobenzyl)-1H-imidazol-4-yl)propan-2-ol] | 41% | < 100 nM |  | 
>80% | Cc1ccccc1Cc1nc(C(C)(C)O)cn1-c1ccc(-c2cc(F)c(CO)c(S(C)(=O)=O)c2)cc1 [Example 17, 2-(1-(3′-fluoro-4′-(hydroxymethyl)-5′-(methylsulfonyl)biphenyl-4-yl)-2-(2-methylbenzyl)-1H-imidazol-4-yl)propan-2-ol] | 20% | < 100 nM |  | 
>80% | CC(C)(O)c1cn(-c2ccc(-c3cc(F)c(CO)c(S(C)(=O)=O)c3)cc2)c(Cc2c(Cl)cccc2Cl)n1 [Example 18, 2-(2-(2,6-dichlorobenzyl)-1-(3′-fluoro-4′-(hydroxymethyl)-5′-(methylsulfonyl)biphenyl-4-yl)-1H-imidazol-4-yl)propan-2-ol] | 51% | < 100 nM |  | 
>80% | CC(C)(O)c1cn(-c2ccc(-c3cc(F)c(CO)c(S(C)(=O)=O)c3)cc2)c(Cc2cc(F)ccc2Cl)n1 [Example 19, 2-[2-(2-Chloro-5-fluoro-benzyl)-1-(3′-fluoro-4′-hydroxymethyl-5′-methanesulfonyl-biphenyl-4-yl)-1H-imidazol-4-yl]-propan-2-ol] | 35% | < 100 nM |  | 
>80% | CC(C)(O)c1cn(-c2ccc(-c3cc(F)c(CO)c(S(C)(=O)=O)c3)cc2F)c(Cc2ccccc2Cl)n1 [Example 20, 2-[2-(2-Chloro-benzyl)-1-(3,3′-difluoro-4′-hydroxymethyl-5′-methanesulfonyl-biphenyl-4-yl)-1H-imidazol-4-yl]-propan-2-ol] | 35% | < 100 nM |  | 

Structure (SMILES) | Human Microsome % Remaining [2] | Emax [1, 3] | EC50 [1, 4] | EC50 ([1]; Homo sapiens, 4 h, read-out: hWBA hABCA1 L30 EC50 (nM)) | Emax ([1]; Homo sapiens, 4 h)
CC(c1c(Cl)cccc1Cl)c1nc(C(C)(C)O)cn1-c1ccc(-c2cc(F)c(CO)c(S(C)(=O)=O)c2)cc1F (stereo not drawn) [Example 21, 2-{2-[1-(2,6-dichlorophenyl)ethyl]-1-[3,3′-difluoro-4′-(hydroxymethyl)-5′-(methylsulfonyl)biphenyl-4-yl]-1H-imidazol-4-yl}propan-2-ol] | >80% |  |  | < 100 nM | 17%

From US8618154B2, “LXR modulators” (Bristol-Myers Squibb Company, priority 2009, dated 2013)
